In BigSolDB 2.1:

O=C(O)c1cccnc1Nc1cccc(C(F)(F)F)c1
solubility (mole fraction) (in MTBE, 288.15 K): 0.0428
solubility (mole fraction) (in MTBE, 293.15 K): 0.0471
solubility (mole fraction) (in MTBE, 298.15 K): 0.0505
solubility (mole fraction) (in MTBE, 303.15 K): 0.0549
solubility (mole fraction) (in MTBE, 308.15 K): 0.0591
solubility (mole fraction) (in MTBE, 313.15 K): 0.0663
solubility (mole fraction) (in MTBE, 318.15 K): 0.073
solubility (mole fraction) (in MTBE, 323.15 K): 0.08
solubility (mole fraction) (in MTBE, 328.15 K): 0.0854
solubility (mole fraction) (in acetone, 288.15 K): 0.0273
solubility (mole fraction) (in acetone, 293.15 K): 0.0296
solubility (mole fraction) (in acetone, 298.15 K): 0.0315
solubility (mole fraction) (in acetone, 303.15 K): 0.034
solubility (mole fraction) (in acetone, 308.15 K): 0.037
solubility (mole fraction) (in acetone, 313.15 K): 0.0418
solubility (mole fraction) (in acetone, 318.15 K): 0.048
solubility (mole fraction) (in acetone, 323.15 K): 0.053
solubility (mole fraction) (in acetone, 328.15 K): 0.0572
solubility (mole fraction) (in acetonitrile, 293.15 K): 0.00125
solubility (mole fraction) (in acetonitrile, 298.15 K): 0.0018
solubility (mole fraction) (in acetonitrile, 303.15 K): 0.00235
solubility (mole fraction) (in acetonitrile, 308.15 K): 0.00319
solubility (mole fraction) (in acetonitrile, 313.15 K): 0.00437
solubility (mole fraction) (in acetonitrile, 318.15 K): 0.00595
solubility (mole fraction) (in acetonitrile, 323.15 K): 0.00745
solubility (mole fraction) (in acetonitrile, 328.15 K): 0.00898
solubility (mole fraction) (in cyclohexane, 288.15 K): 0.00268
solubility (mole fraction) (in cyclohexane, 293.15 K): 0.00379
solubility (mole fraction) (in cyclohexane, 298.15 K): 0.00512
solubility (mole fraction) (in cyclohexane, 303.15 K): 0.00674
solubility (mole fraction) (in cyclohexane, 308.15 K): 0.00887
solubility (mole fraction) (in cyclohexane, 313.15 K): 0.0114
solubility (mole fraction) (in cyclohexane, 318.15 K): 0.0137
solubility (mole fraction) (in cyclohexane, 323.15 K): 0.0158
solubility (mole fraction) (in cyclohexane, 328.15 K): 0.0182
solubility (mole fraction) (in diisopropyl ether, 288.15 K): 0.00814
solubility (mole fraction) (in diisopropyl ether, 293.15 K): 0.0119
solubility (mole fraction) (in diisopropyl ether, 298.15 K): 0.0146
solubility (mole fraction) (in diisopropyl ether, 303.15 K): 0.0183
solubility (mole fraction) (in diisopropyl ether, 308.15 K): 0.022
solubility (mole fraction) (in diisopropyl ether, 313.15 K): 0.0262
solubility (mole fraction) (in diisopropyl ether, 318.15 K): 0.0303
solubility (mole fraction) (in diisopropyl ether, 323.15 K): 0.0357
solubility (mole fraction) (in diisopropyl ether, 328.15 K): 0.0424
solubility (mole fraction) (in ethanol, 288.15 K): 0.00748
solubility (mole fraction) (in ethanol, 293.15 K): 0.00873
solubility (mole fraction) (in ethanol, 298.15 K): 0.00935
solubility (mole fraction) (in ethanol, 303.15 K): 0.0113
solubility (mole fraction) (in ethanol, 308.15 K): 0.0133
solubility (mole fraction) (in ethanol, 313.15 K): 0.0153
solubility (mole fraction) (in ethanol, 318.15 K): 0.0177
solubility (mole fraction) (in ethanol, 323.15 K): 0.0197
solubility (mole fraction) (in ethanol, 328.15 K): 0.0211
solubility (mole fraction) (in ethyl acetate, 288.15 K): 0.0243
solubility (mole fraction) (in ethyl acetate, 293.15 K): 0.0261
solubility (mole fraction) (in ethyl acetate, 298.15 K): 0.0279
solubility (mole fraction) (in ethyl acetate, 303.15 K): 0.0308
solubility (mole fraction) (in ethyl acetate, 308.15 K): 0.0346
solubility (mole fraction) (in ethyl acetate, 313.15 K): 0.0393
solubility (mole fraction) (in ethyl acetate, 318.15 K): 0.0439
solubility (mole fraction) (in ethyl acetate, 323.15 K): 0.0494
solubility (mole fraction) (in ethyl acetate, 328.15 K): 0.0544
solubility (mole fraction) (in isopropanol, 288.15 K): 0.00751
solubility (mole fraction) (in isopropanol, 293.15 K): 0.00844
solubility (mole fraction) (in isopropanol, 298.15 K): 0.00941
solubility (mole fraction) (in isopropanol, 303.15 K): 0.0107
solubility (mole fraction) (in isopropanol, 308.15 K): 0.0131
solubility (mole fraction) (in isopropanol, 313.15 K): 0.0152
solubility (mole fraction) (in isopropanol, 318.15 K): 0.0179
solubility (mole fraction) (in isopropanol, 323.15 K): 0.0209
solubility (mole fraction) (in isopropanol, 328.15 K): 0.0235
solubility (mole fraction) (in isopropyl acetate, 288.15 K): 0.0228
solubility (mole fraction) (in isopropyl acetate, 293.15 K): 0.0264
solubility (mole fraction) (in isopropyl acetate, 298.15 K): 0.029
solubility (mole fraction) (in isopropyl acetate, 303.15 K): 0.0324
solubility (mole fraction) (in isopropyl acetate, 308.15 K): 0.0372
solubility (mole fraction) (in isopropyl acetate, 313.15 K): 0.0435
solubility (mole fraction) (in isopropyl acetate, 318.15 K): 0.05
solubility (mole fraction) (in isopropyl acetate, 323.15 K): 0.0564
solubility (mole fraction) (in isopropyl acetate, 328.15 K): 0.0637
solubility (mole fraction) (in methanol, 288.15 K): 0.00655
solubility (mole fraction) (in methanol, 293.15 K): 0.00766
solubility (mole fraction) (in methanol, 298.15 K): 0.00862
solubility (mole fraction) (in methanol, 303.15 K): 0.00967
solubility (mole fraction) (in methanol, 308.15 K): 0.0107
solubility (mole fraction) (in methanol, 313.15 K): 0.0118
solubility (mole fraction) (in methanol, 318.15 K): 0.0135
solubility (mole fraction) (in methanol, 323.15 K): 0.0151
solubility (mole fraction) (in methanol, 328.15 K): 0.0171
solubility (mole fraction) (in n-heptane, 288.15 K): 0.00171
solubility (mole fraction) (in n-heptane, 293.15 K): 0.00276
solubility (mole fraction) (in n-heptane, 298.15 K): 0.00404
solubility (mole fraction) (in n-heptane, 303.15 K): 0.00562
solubility (mole fraction) (in n-heptane, 308.15 K): 0.00726
solubility (mole fraction) (in n-heptane, 313.15 K): 0.00951
solubility (mole fraction) (in n-heptane, 318.15 K): 0.0121
solubility (mole fraction) (in n-heptane, 323.15 K): 0.0145
solubility (mole fraction) (in n-heptane, 328.15 K): 0.0172
solubility (mole fraction) (in n-hexane, 288.15 K): 0.00145
solubility (mole fraction) (in n-hexane, 293.15 K): 0.00256
solubility (mole fraction) (in n-hexane, 298.15 K): 0.00382
solubility (mole fraction) (in n-hexane, 303.15 K): 0.00539
solubility (mole fraction) (in n-hexane, 308.15 K): 0.00678
solubility (mole fraction) (in n-hexane, 313.15 K): 0.00896
solubility (mole fraction) (in n-hexane, 318.15 K): 0.011
solubility (mole fraction) (in n-hexane, 323.15 K): 0.0131
solubility (mole fraction) (in n-hexane, 328.15 K): 0.0155
solubility (mole fraction) (in n-propanol, 288.15 K): 0.00879
solubility (mole fraction) (in n-propanol, 293.15 K): 0.00999
solubility (mole fraction) (in n-propanol, 298.15 K): 0.011
solubility (mole fraction) (in n-propanol, 303.15 K): 0.0129
solubility (mole fraction) (in n-propanol, 308.15 K): 0.0147
solubility (mole fraction) (in n-propanol, 313.15 K): 0.0174
solubility (mole fraction) (in n-propanol, 318.15 K): 0.0202
solubility (mole fraction) (in n-propanol, 323.15 K): 0.0232
solubility (mole fraction) (in n-propanol, 328.15 K): 0.0266
solubility (mole fraction) (in toluene, 293.15 K): 0.00154
solubility (mole fraction) (in toluene, 298.15 K): 0.00242
solubility (mole fraction) (in toluene, 303.15 K): 0.00395
solubility (mole fraction) (in toluene, 308.15 K): 0.00532
solubility (mole fraction) (in toluene, 313.15 K): 0.0073
solubility (mole fraction) (in toluene, 318.15 K): 0.00991
solubility (mole fraction) (in toluene, 323.15 K): 0.0133
solubility (mole fraction) (in toluene, 328.15 K): 0.0172
